Laboratory results published in patent EP3375430A1, “FRAGRANCE COMPOSITIONS” (Takasago International Corporation, priority 2017, dated 2018).

Key:
[1] = Amount of fragrance ingredients retained on paper blotter after evaporation (ethanol extraction, GC-MS); format: physicochemical
Description: A fragrance (hereafter fragrance TAK, the formulation of which is shown in table 1) was formulated in a typical Eau de Toilette (EdT1) or in fragrance compositions according to the invention (compositions C1 to C4), as shown in table 2. The amount of individual fragrance ingredients retained on paper substrate (blotter) after set time periods was assessed by the following method.
100µL samples of either EdT1 or compositions C1 to C4 were applied to 4.5cm long standard paper blotters with a microsyringe. Three replicate blotters were prepared for each extraction time. After the appropriate evaporation time each of the 3 blotters was transferred to a 30mL glass bottle. 3mL of ethanol and 50µL of a 1% solution of methyl decanoate in ethanol as an internal standard were added. The bottle was sealed and placed on a roller bed to extract the blotter for 1 hour. A sample of the extracting solution was transferred to a vial which was sealed and analysed by gas chromatography (GC 6890) with a Mass Spectrometer detector (MS 5973) using the method described below. The results of the three replicate measurements were averaged. At exact times the same extraction was repeated on the remaining blotters which were stored on a warm surface at 32°C open to the air to allow evaporation. The gas chromatography conditions were as given below.
• Initial Temp: 50°C • Initial Time: 2 min • Rate: 10°C /min • Final Temp: 280°C • Final Time: 5 min • Run Time: 30 min
• Column: HP-5MS 30m * 0.25mm * 0.25µm • Gas: Helium • Constant Pressure 18.55 psi
• Split mode Ratio 40:1 • Inlet Temp: 250°C
• MS 5973 • Mass range: 35 to 350 • Threshold: 100 • Mass Quad: 150°C • Mass Source: 230°C
To simplify the results the average amount of each fragrance ingredient from the 3 samples measured at time zero was set at 100% and all other measurements were then related to that value so tables 3 to 6 show decreasing amounts of fragrance ingredients as a percentage of the initial amount.
The method of example 1 was repeated using a commercial fragrance (hereafter fragrance COM1, the formulation of which is given in table 7) formulated in a typical Eau de Toilette (EdT2) or in fragrance compositions according to the invention (compositions C5 and C6), as shown in table 8.

[2] = Headspace concentration of fragrance ingredients over blotter (thermal desorption GC-MS); format: physicochemical; conditions: fragrance TAK; after 1 hour; both control EdT1 and composition C1; Figure 2
Description: The headspace concentration of individual ingredients of fragrance TAK, as formulated in either a conventional EdT (EdT1) or a fragrance composition of the invention (C1), was assessed by the method described below.
A 10 cm length was cut from a standard perfumers' blotter. A sample of 100µL volume was applied to the upper surface of the blotter with a syringe. The blotter was placed on a hot plate thermostatted at 32°C and left to equilibrate for 5 minutes. Two desorption tubes (6cm length 4mm internal diameter) each containing 2 cm length of Tenax TA adsorbent were fitted to the glass part of a headspace apparatus shown in figure 9. The glass part was fitted over the blotter, a metering pump was connected to one of the desorption tubes and air was drawn through the apparatus flushing the headspace over the blotter at a rate of 17mL/min. Sampling continued for about 16.5 minutes until 280mL of air had been extracted. Then the outlet desorption tube was analysed by gas chromatography as described below. The glass part was removed from the blotter which was left on the hotplate until the next sampling time when two fresh desorption tubes were fitted and the extraction procedure repeated for a further 280mL of extracted headspace.
• Initial Temp: 50°C • Initial Time: 5 min • Rate: 3°C /min • Final Temp: 250°C • Final Time: 20 min • Run Time: 91.67 min
• Column: HP-5MS 30m * 0.25mm * 0.25µm • Gas: Helium • Constant pressure 12.675 psi
• Initial Temp: -30°C • Equilibration Time: 0.05 min • Initial Time: 0.00 min • Rate 12°C / min • End Temp: 260°C • Hold Time: 10 min
Temperature program • Initial Temp: 35°C • Delay Time: 0.30 min • Initial Time: 0.00 min • Rate: 30°C / min • End Temp: 250°C • Hold Time: 5.00 min
TDU Settings • Transfer Temp: 250°C • Transfer Temp Mode: Fixed • Desorption Mode: splitless • Sample mode: Retain tube - standby cooling • Standby Temp: 50°C
Detector MS • MS 5973 • Mass range: 35 to 350 • Threshold: 150 • Mass Quad: 150°C • Mass Source: 230°C
Following the procedure of example 2, the headspace concentration of representative ingredients of fragrance COM1 was determined. COM1 was dosed at 5 and 20 % either in control EdT3 and EdT4 or in compositions of the invention C7 and C8, as shown in table 10.
The headspace concentration of individual ingredients of fragrance TAK (see Table 1), as formulated in either a conventional EdT (EdT1) or fragrance compositions of the invention (C14, C15), was assessed by the method described in example 2.

amount of fragrance ingredient retained on blotter (percentage of the initial amount) ([1]; Table 3, fragrance TAK in C1, 15 min, 32°C): 41%
amount of fragrance ingredient retained on blotter (percentage of the initial amount) ([1]; Table 3, fragrance TAK in C1, 60 min, 32°C): 5%
amount of fragrance ingredient retained on blotter (percentage of the initial amount) ([1]; Table 3, fragrance TAK in C1, 120 min, 32°C): 2%
amount of fragrance ingredient retained on blotter (percentage of the initial amount) ([1]; Table 3, fragrance TAK in C1, 240 min, 32°C): 2%
amount of fragrance ingredient retained on blotter (percentage of the initial amount) ([1]; Table 3, fragrance TAK in C1, 480 min, 32°C): 2%
amount of fragrance ingredient retained on blotter (percentage of the initial amount) ([1]; Table 3, fragrance TAK in EdT1, 15 min, 32°C): 13%
amount of fragrance ingredient retained on blotter (percentage of the initial amount) ([1]; Table 3, fragrance TAK in EdT1, 60 min, 32°C): 2%
amount of fragrance ingredient retained on blotter (percentage of the initial amount) ([1]; Table 3, fragrance TAK in EdT1, 120 min, 32°C): 2%
amount of fragrance ingredient retained on blotter (percentage of the initial amount) ([1]; Table 3, fragrance TAK in EdT1, 240 min, 32°C): 1%
amount of fragrance ingredient retained on blotter (percentage of the initial amount) ([1]; Table 3, fragrance TAK in EdT1, 480 min, 32°C): <1%
amount of fragrance ingredient retained on blotter (percentage of the initial amount) ([1]; Table 3, fragrance TAK in EdT1 or C1, T0, set at 100% (normalisation)): 100%
amount of fragrance ingredient retained on blotter (percentage of the initial amount) ([1]; Table 4, fragrance TAK in C2, 15 min, 32°C): 54%
amount of fragrance ingredient retained on blotter (percentage of the initial amount) ([1]; Table 4, fragrance TAK in C2, 480 min, 32°C): <1%
amount of fragrance ingredient retained on blotter (percentage of the initial amount) ([1]; Table 4, fragrance TAK in EdT1, 15 min, 32°C): 15%
amount of fragrance ingredient retained on blotter (percentage of the initial amount) ([1]; Table 4, fragrance TAK in EdT1, 480 min, 32°C): 6%
amount of fragrance ingredient retained on blotter (percentage of the initial amount) ([1]; Table 4, fragrance TAK in EdT1 or C2, T0, set at 100% (normalisation)): 100%
amount of fragrance ingredient retained on blotter (percentage of the initial amount) ([1]; Table 5, fragrance TAK in C3, 15 min, 32°C): 43%
amount of fragrance ingredient retained on blotter (percentage of the initial amount) ([1]; Table 5, fragrance TAK in C3, 60 min, 32°C): 5%
amount of fragrance ingredient retained on blotter (percentage of the initial amount) ([1]; Table 5, fragrance TAK in C3, 120 min, 32°C): 2%
amount of fragrance ingredient retained on blotter (percentage of the initial amount) ([1]; Table 5, fragrance TAK in C3, 240 min, 32°C): 2%
amount of fragrance ingredient retained on blotter (percentage of the initial amount) ([1]; Table 5, fragrance TAK in C3, 480 min, 32°C): 2%
amount of fragrance ingredient retained on blotter (percentage of the initial amount) ([1]; Table 5, fragrance TAK in C3, 1440 min, 32°C): 2%
amount of fragrance ingredient retained on blotter (percentage of the initial amount) ([1]; Table 5, fragrance TAK in EdT1, 15 min, 32°C): 13%
amount of fragrance ingredient retained on blotter (percentage of the initial amount) ([1]; Table 5, fragrance TAK in EdT1, 60 min, 32°C): 2%
amount of fragrance ingredient retained on blotter (percentage of the initial amount) ([1]; Table 5, fragrance TAK in EdT1, 120 min, 32°C): 2%
amount of fragrance ingredient retained on blotter (percentage of the initial amount) ([1]; Table 5, fragrance TAK in EdT1, 240 min, 32°C): 1%
amount of fragrance ingredient retained on blotter (percentage of the initial amount) ([1]; Table 5, fragrance TAK in EdT1, 480 min, 32°C): <1%
amount of fragrance ingredient retained on blotter (percentage of the initial amount) ([1]; Table 5, fragrance TAK in EdT1, 1440 min, 32°C): <1%
amount of fragrance ingredient retained on blotter (percentage of the initial amount) ([1]; Table 5, fragrance TAK in EdT1 or C3, T0, set at 100% (normalisation)): 100%
amount of fragrance ingredient retained on blotter (percentage of the initial amount) ([1]; Table 6, fragrance TAK in C4, 15 min, 32°C): 41%
amount of fragrance ingredient retained on blotter (percentage of the initial amount) ([1]; Table 6, fragrance TAK in C4, 60 min, 32°C): 5%
amount of fragrance ingredient retained on blotter (percentage of the initial amount) ([1]; Table 6, fragrance TAK in C4, 120 min, 32°C): 5%
amount of fragrance ingredient retained on blotter (percentage of the initial amount) ([1]; Table 6, fragrance TAK in C4, 240 min, 32°C): 4%
amount of fragrance ingredient retained on blotter (percentage of the initial amount) ([1]; Table 6, fragrance TAK in C4, 480 min, 32°C): 3%
amount of fragrance ingredient retained on blotter (percentage of the initial amount) ([1]; Table 6, fragrance TAK in EdT1, 15 min, 32°C): 13%
amount of fragrance ingredient retained on blotter (percentage of the initial amount) ([1]; Table 6, fragrance TAK in EdT1, 60 min, 32°C): 2%
amount of fragrance ingredient retained on blotter (percentage of the initial amount) ([1]; Table 6, fragrance TAK in EdT1, 120 min, 32°C): 2%
amount of fragrance ingredient retained on blotter (percentage of the initial amount) ([1]; Table 6, fragrance TAK in EdT1, 240 min, 32°C): 1%
amount of fragrance ingredient retained on blotter (percentage of the initial amount) ([1]; Table 6, fragrance TAK in EdT1, 480 min, 32°C): <1%
amount of fragrance ingredient retained on blotter (percentage of the initial amount) ([1]; Table 6, fragrance TAK in EdT1 or C4, T0, set at 100% (normalisation)): 100%
headspace presence of ingredient [2]: lost
Structure (SMILES): CCCCCCOC(C)=O [Hexyl acetate, Hexyl Acetate]
